# Reference: US10562887B2, “Triazolones and tetrazolones as inhibitors of ROCK” (BRISTOL-MYERS SQUIBB COMPANY, priority 2016, dated 2020)
# Target: ROCK2 (Homo sapiens (Human), UniProt O75116)
# Experiment: ROCK2 assay (peptide phosphorylation, LABCHIP 3000 Reader)
# Type: biochemical
# Settings: 5 μM ATP, 1.5 μM peptide substrate
# Summary of the method: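 Human ROCK2 reaction in 20 mM HEPES pH 7.5, 20 mM MgCl2, 0.015% Brij-35, 4 mM DTT, with 5 μM ATP and 1.5 μM FITC-labelled peptide, DMSO <2%. Stopped with EDTA; phosphorylated and unphosphorylated peptide separated by microfluidic mobility shift. IC50 from dose-response curve fit.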
# Chain of ROCK2 (O75116 whole entry, species assumed): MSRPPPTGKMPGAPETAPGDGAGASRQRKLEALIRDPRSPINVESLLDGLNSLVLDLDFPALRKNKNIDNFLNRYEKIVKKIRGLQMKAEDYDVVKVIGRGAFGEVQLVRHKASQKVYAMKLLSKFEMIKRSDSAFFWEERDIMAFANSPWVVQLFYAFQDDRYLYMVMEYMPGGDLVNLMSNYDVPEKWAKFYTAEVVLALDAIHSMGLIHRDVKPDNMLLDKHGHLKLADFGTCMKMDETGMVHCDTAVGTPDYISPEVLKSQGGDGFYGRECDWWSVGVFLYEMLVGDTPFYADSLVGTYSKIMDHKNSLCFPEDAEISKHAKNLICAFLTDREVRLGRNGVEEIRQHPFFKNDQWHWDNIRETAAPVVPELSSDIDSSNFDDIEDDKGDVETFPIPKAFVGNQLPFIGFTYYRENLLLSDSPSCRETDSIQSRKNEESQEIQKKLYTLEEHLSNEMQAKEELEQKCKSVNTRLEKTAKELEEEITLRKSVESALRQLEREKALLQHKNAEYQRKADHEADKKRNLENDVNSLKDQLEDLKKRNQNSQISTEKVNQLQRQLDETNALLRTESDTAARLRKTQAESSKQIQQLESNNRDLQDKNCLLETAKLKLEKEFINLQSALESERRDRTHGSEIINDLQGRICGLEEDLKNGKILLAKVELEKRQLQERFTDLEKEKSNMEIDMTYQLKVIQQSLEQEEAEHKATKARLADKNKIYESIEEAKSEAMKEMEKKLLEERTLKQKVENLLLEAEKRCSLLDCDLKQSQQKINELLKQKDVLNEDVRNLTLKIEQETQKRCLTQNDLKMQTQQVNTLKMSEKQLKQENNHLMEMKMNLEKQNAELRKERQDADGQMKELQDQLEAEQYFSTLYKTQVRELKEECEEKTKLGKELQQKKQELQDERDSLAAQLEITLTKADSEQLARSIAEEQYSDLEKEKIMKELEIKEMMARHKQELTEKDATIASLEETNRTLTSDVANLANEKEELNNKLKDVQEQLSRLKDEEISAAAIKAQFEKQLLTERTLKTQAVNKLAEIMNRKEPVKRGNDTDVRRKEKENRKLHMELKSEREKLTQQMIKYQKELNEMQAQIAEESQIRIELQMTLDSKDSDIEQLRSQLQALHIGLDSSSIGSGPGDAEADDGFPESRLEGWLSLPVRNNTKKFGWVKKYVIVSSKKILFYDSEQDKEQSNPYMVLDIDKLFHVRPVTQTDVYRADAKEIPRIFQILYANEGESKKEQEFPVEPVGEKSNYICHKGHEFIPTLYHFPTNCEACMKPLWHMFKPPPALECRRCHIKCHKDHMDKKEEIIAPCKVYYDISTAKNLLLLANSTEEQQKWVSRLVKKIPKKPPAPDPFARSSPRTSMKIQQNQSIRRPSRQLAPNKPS
row,Compound,IC50
1,"COc1cccc(Cn2c(CN3CCOCC3)nn(-c3ccc(-c4cn[nH]c4)cc3)c2=O)c1 [Example 143, 1-(4-(1H-pyrazol-4-yl)phenyl)-4-(3-methoxybenzyl)-3-(morpholinomethyl)-1H-1,2,4-triazol-5(4H)-one]",5 to 50 nM
2,"COc1cccc(Cn2c(CN3CCCC3)nn(-c3ccc(-c4cn[nH]c4)cc3)c2=O)c1 [Example 146, 1-(4-(1H-pyrazol-4-yl)phenyl)-4-(3-methoxybenzyl)-3-(pyrrolidin-1-ylmethyl)-1H-1,2,4-triazol-5(4H)-one]",5 to 50 nM
3,"COc1cc(F)cc(Cn2c(CN3CCOCC3)nn(-c3ccc(-c4cn[nH]c4)cc3)c2=O)c1 [Example 149, 1-(4-(1H-pyrazol-4-yl)phenyl)-4-(3-fluoro-5-methoxybenzyl)-3-(morpholinomethyl)-1H-1,2,4-triazol-5(4H)-one]",5 to 50 nM
4,"COc1cc(F)cc(Cn2c(CN3CCCC3)nn(-c3ccc(-c4cn[nH]c4)cc3)c2=O)c1 [Example 150, 1-(4-(1H-pyrazol-4-yl)phenyl)-4-(3-fluoro-5-methoxybenzyl)-3-(pyrrolidin-1-ylmethyl)-1H-1,2,4-triazol-5(4H)-one]",5 to 50 nM
5,"COc1cc(F)cc(Cn2c(CN3CCNCC3)nn(-c3ccc(-c4cn[nH]c4)cc3)c2=O)c1 [Example 152, 1-(4-(1H-pyrazol-4-yl)phenyl)-4-(3-fluoro-5-methoxybenzyl)-3-(piperazin-1-ylmethyl)-1H-1,2,4-triazol-5(4H)-one]",5 to 50 nM
6,"COc1cc(F)cc(Cn2c(CN3CCC(O)C3)nn(-c3ccc(-c4cn[nH]c4)cc3)c2=O)c1 (stereo not shown) [Example 155, 1-(4-(1H-pyrazol-4-yl)phenyl)-4-(3-fluoro-5-methoxybenzyl)-3-((3-hydroxypyrrolidin-1-yl)methyl)-1H-1,2,4-triazol-5(4H)-one]",5 to 50 nM
7,"COc1cccc(Cn2c(C)nn(-c3ccc(-c4ccnc(N)c4)cc3)c2=O)c1 [Example 161, 1-(4-(2-aminopyridin-4-yl)phenyl)-4-(3-methoxybenzyl)-3-methyl-1H-1,2,4-triazol-5(4H)-one]",50 to 250 nM
8,"COc1cccc(Cn2cnn(-c3ccc(-c4ccnc(N)c4)cc3)c2=O)c1 [Example 162, 1-(4-(2-aminopyridin-4-yl)phenyl)-4-(3-methoxybenzyl)-1H-1,2,4-triazol-5(4H)-one]",5 to 50 nM
9,"COc1cccc(Cn2cnn(-c3ccc(-c4ncnc5[nH]ccc45)cc3)c2=O)c1 [Example 163, 1-(4-(7H-pyrrolo[2,3-d]pyrimidin-4-yl)phenyl)-4-(3-methoxybenzyl)-1H-1,2,4-triazol-5(4H)-one]",50 to 250 nM
10,"COc1cccc(Cn2c(C)nn(-c3ccc(-c4ncnc5[nH]ccc45)cc3)c2=O)c1 [Example 164, 1-(4-(7H-pyrrolo[2,3-d]pyrimidin-4-yl)phenyl)-4-(3-methoxybenzyl)-3-methyl-1H-1,2,4-triazol-5(4H)-one]",250 to 2000 nM
11,"COc1cccc(Cn2c(C)nn(-c3ccc(-c4ccnc5[nH]ccc45)cc3)c2=O)c1 [Example 165, 1-(4-(1H-pyrrolo[2,3-b]pyridin-4-yl)phenyl)-4-(3-methoxybenzyl)-3-methyl-1H-1,2,4-triazol-5(4H)-one]",5 to 50 nM
12,"COc1cccc(Cn2c(C)nn(-c3ccc(-c4ccnc(N)n4)cc3)c2=O)c1 [Example 166, 1-(4-(2-aminopyrimidin-4-yl)phenyl)-4-(3-methoxybenzyl)-3-methyl-1H-1,2,4-triazol-5(4H)-one]",5 to 50 nM

# Results, then the molecule that gave them:
row,IC50,Compound
1,50 to 250 nM,"CC(C)(O)c1nn(-c2ccc(-c3cn[nH]c3)cc2)c(=O)n1Cc1c(F)cccc1F [Example 138, 1-(4-(1H-pyrazol-4-yl)phenyl)-4-(2,6-difluorobenzyl)-3-(2-hydroxypropan-2-yl)-1H-1,2,4-triazol-5(4H)-one]"
2,50 to 250 nM,"CC(C)(O)c1nn(-c2ccc(-c3cn[nH]c3)cc2)c(=O)n1Cc1cccc(OC(F)F)c1 [Example 139, 1-(4-(1H-pyrazol-4-yl)phenyl)-4-(3-(difluoromethoxy)benzyl)-3-(2-hydroxypropan-2-yl)-1H-1,2,4-triazol-5(4H)-one]"
3,5 to 50 nM,"COc1cccc(Cn2c(CN(C)C)nn(-c3ccc(-c4cn[nH]c4)cc3)c2=O)c1 [Example 142, 1-(4-(1H-pyrazol-4-yl)phenyl)-3-((dimethylamino)methyl)-4-(3-methoxybenzyl)-1H-1,2,4-triazol-5(4H)-one]"
4,< 5 nM,"COc1cc(F)cc(Cn2c(CO)nn(-c3ccc(-c4cn[nH]c4)cc3)c2=O)c1 [Example 144, 1-(4-(1H-pyrazol-4-yl)phenyl)-4-(3-fluoro-5-methoxybenzyl)-3-(hydroxymethyl)-1H-1,2,4-triazol-5(4H)-one]"
5,5 to 50 nM,"COc1cc(F)cc(Cn2c(C(C)(C)O)nn(-c3ccc(-c4cn[nH]c4)cc3)c2=O)c1 [Example 145, 1-(4-(1H-pyrazol-4-yl)phenyl)-4-(3-fluoro-5-methoxybenzyl)-3-(2-hydroxypropan-2-yl)-1H-1,2,4-triazol-5(4H)-one]"
6,5 to 50 nM,"COc1cc(F)cc(Cn2c(CN(C)C)nn(-c3ccc(-c4cn[nH]c4)cc3)c2=O)c1 [Example 148, 1-(4-(1H-pyrazol-4-yl)phenyl)-3-((dimethylamino)methyl)-4-(3-fluoro-5-methoxybenzyl)-1H-1,2,4-triazol-5(4H)-one]"
7,5 to 50 nM,"COc1cc(F)cc(Cn2c(CNCCO)nn(-c3ccc(-c4cn[nH]c4)cc3)c2=O)c1 [Example 151, 1-(4-(1H-pyrazol-4-yl)phenyl)-4-(3-fluoro-5-methoxybenzyl)-3-(((2-hydroxyethyl)amino)methyl)-1H-1,2,4-triazol-5(4H)-one]"
8,5 to 50 nM,"COc1cc(F)cc(Cn2c(CNC(C)CO)nn(-c3ccc(-c4cn[nH]c4)cc3)c2=O)c1 (stereo not shown) [Example 153, 1-(4-(1H-pyrazol-4-yl)phenyl)-4-(3-fluoro-5-methoxybenzyl)-3-(((1-hydroxypropan-2-yl)amino)methyl)-1H-1,2,4-triazol-5(4H)-one]"
9,5 to 50 nM,"COc1cccc(Cn2c(CN3CCC(O)C3)nn(-c3ccc(-c4cn[nH]c4)cc3)c2=O)c1 (stereo not shown) [Example 156, 1-(4-(1H-pyrazol-4-yl)phenyl)-3-((3-hydroxypyrrolidin-1-yl)methyl)-4-(3-methoxybenzyl)-1H-1,2,4-triazol-5(4H)-one]"
10,50 to 250 nM,"COc1ccc(F)cc1Cn1c(CO)nn(-c2ccc(-c3cn[nH]c3)cc2)c1=O [Example 157, 1-(4-(1H-pyrazol-4-yl)phenyl)-4-(5-fluoro-2-methoxybenzyl)-3-(hydroxymethyl)-1H-1,2,4-triazol-5(4H)-one]"
11,5 to 50 nM,"COc1cc(Cn2c(CO)nn(-c3ccc(-c4cn[nH]c4)cc3)c2=O)ccc1F [Example 158, 1-(4-(1H-pyrazol-4-yl)phenyl)-4-(4-fluoro-3-methoxybenzyl)-3-(hydroxymethyl)-1H-1,2,4-triazol-5(4H)-one]"
12,250 to 2000 nM,"COc1ccc(Cn2c(CO)nn(-c3ccc(-c4cn[nH]c4)cc3)c2=O)cc1F [Example 159, 1-(4-(1H-pyrazol-4-yl)phenyl)-4-(3-fluoro-4-methoxybenzyl)-3-(hydroxymethyl)-1H-1,2,4-triazol-5(4H)-one]"
13,250 to 2000 nM,"COc1cccc(Cn2c(CO)nn(-c3ccc(-c4cn[nH]c4)cc3)c2=O)c1F [Example 160, 1-(4-(1H-pyrazol-4-yl)phenyl)-4-(2-fluoro-3-methoxybenzyl)-3-(hydroxymethyl)-1H-1,2,4-triazol-5(4H)-one]"
